Converted amounts (≈) assume the structure as drawn. Where two headings read alike, the source gives them in different places.
Experiments:
[1] = test system: pancreatic cancer cells PANC-1; assay: Cell proliferation assay (CCK-8); assay type: cell-based, human; settings: Homo sapiens, PANC-1, 72 h
Text: (§1) CCK-8 method: The CCK-8 method is a highly sensitive, non-radioactive colorimetric assay for the determination of the number of viable cells in cell proliferation or cytotoxicity assays. The orange formazan dye produced by the bioreduction of CCK-8 by intracellular dehydrogenase is soluble in the cell culture medium, and the amount of formazan dye produced is proportional to the number of living cells. The kit used in this method is the tetrazolium salt-WST-8 (2-(2-methoxy-4-nitrophenyl)-3-(4-nitrophenyl)-5-(2,4-disulfophenyl)-2H-tetrazolium monosodium salt) developed by Dojindo Chemical Research Institute (Dojindo), which is capable of being reduced to a water-soluble formazan dye in the presence of the electronic carrier 1-Methoxy PMS.
(§2) Human cervical cancer cells Hela, pancreatic cancer cells PANC-1, esophageal cancer cells Eca-109, human leukemia cells K562, human lung cancer cells A549, human liver cancer cells HepG2, human gastric cancer cells MKN-45, human breast cancer cells MCF7 were cultured in DMEM medium containing 10% FBS (fetal bovine serum), 100 U/mL penicillin and 100 μg/ml streptomycin. Hepatocellular carcinoma cells Bel-7402 were cultured in RPMI-1640 medium containing 10% FBS (fetal bovine serum), 100 U/ml penicillin and 100 μg/ml streptomycin. All cells were placed in a cell culture incubator at 37° C. with 5% CO2. Cells fluid was changed every 3-5 days, and after 80% cell fusion, trypsin digestion and passaging were performed to keep the cells in good logarithmic growth phase.
(§3) All the samples to be tested were dissolved in DMSO.
(§4) Cells in logarithmic growth phase were inoculated in 96-well plates with 5000 cells/well respectively, and after 24 h of incubation, samples were added (final concentrations as shown in the table), and biplicate wells were set up for each sample. The amount of solvent of DMSO was not higher than 2‰. After 72 h, 10 μL of CCK-8 solution was added to each well and incubated for 1.5˜3 h at 37° C. The OD value at 450 nm was measured on an plate reader. Inhibition rate (%)=(1−[(OD450 dosed well−OD450 blank well)/(OD450 control well−OD450 blank well)])×100%
(§5) The fitted IC50 values were calculated using the log (inhibitor) vs. response—Variable slop analysis method in GraphPad Prism software.

[2] = test system: esophageal cancer cells Eca-109; assay: Cell proliferation assay (CCK-8); assay type: cell-based, human; settings: Homo sapiens, Eca-109, 72 h
Text: as §1, §2, §3, §4, §5

[3] = Solubility test (shake 37° C., 24 h, HPLC); assay type: physicochemical; settings: thermodynamic from solid, x ± s
Experimental: The term “solubility” refers to the mass of solute dissolved when a solid substance reaches saturation state in 100 g solvent at a certain temperature. Solubility test refer to the following references: ZHU Shang-bin, et al. Preparation, characterization, and physicochemical properties of arbutin phospholipid complex[J]. Chinese Traditional and Herbal Drugs. 2020, 1-10.
Methods: Excess BFA and the compounds disclosed herein were added to 10 mL of three solvents, methanol, acetone and 5% DMSO+95% H2O, respectively, and shaken on a shaker at 37° C. at 100 r/min for 24 h. After 24 h, the samples were centrifuged at 15 000 r/min for 15 min to remove the undissolved compounds. The supernatant was filtered using a 0.45 μm membrane filter. The supernatant was appropriately diluted with methanol and contents of the compounds were determined by HPLC method to calculate the solubility.

[4] = test system: Human cervical cancer cells Hela; assay: Cell proliferation assay (CCK-8); assay type: cell-based; settings: Homo sapiens, 72 h
Text: as §1, §2, §3, §4, §5

[5] = test system: human breast cancer cells MCF7; assay: Cell proliferation assay (CCK-8); assay type: cell-based; settings: Homo sapiens, MCF7, 72 h
Text: as §1, §2, §3, §4, §5

[6] = test system: human lung cancer cells A549; assay: Cell proliferation assay (CCK-8); assay type: cell-based; settings: Homo sapiens, A549, 72 h
Text: as §1, §2, §3, §4, §5

[7] = test system: human liver cancer cells HepG2; assay: Cell proliferation assay (CCK-8); assay type: cell-based; settings: Homo sapiens, HepG2, 72 h
Text: as §1, §2, §3, §4, §5

[8] = test system: human leukemia cells K562; assay: Cell proliferation assay (CCK-8); assay type: cell-based; settings: Homo sapiens, K562, 72 h
Text: as §1, §2, §3, §4, §5

[9] = test system: human gastric cancer cells MKN-45; assay: Cell proliferation assay (CCK-8); assay type: cell-based; settings: Homo sapiens, MKN-45, 72 h
Text: as §1, §2, §3, §4, §5

[10] = Pharmacokinetic evaluation (plasma BFA by LC/MS/MS); assay type: in vivo, SD rats; settings: rat, in vivo, 40 mg/kg
Experimental: SD rats were weighed after an overnight fasting of 15 hours and randomly grouped according to weights. The appropriate amount of the compound was accurately weighed, and a final volume of 5% DMSO, 10% Solutol, and 85% Saline was added and vortexed or sonicated to make a thorough mixing to provide a 4 mg/mL solution for intravenous administration (iv.). Venous blood was taken at the time points of 0, 0.083 (iv. group only), 0.25, 0.5, 1.0, 2.0, 5.0, 7.0 and 24 h, via jugular vein or other suitable means, with approximately 0.20 mL of each sample collected, anticoagulated with sodium heparin (with 6.25 μL of 200 mM DDVP/tube added), and placed on ice after collection. The plasma was separated by centrifugation within 2 hours (centrifugal force 6800 g, 6 min, 2-8° C.). The collected plasma samples were stored in a −70° C. refrigerator before analysis, and the remaining plasma samples after analysis were kept stored at −20° C. or −70° C. until LC/MS/MS analysis was performed. The accuracy of QC samples was evaluated while analyzing the samples, and more than 66% of the QC samples were required to have an accuracy between 80-120%. When plasma drug concentration-time curves were plotted, BLQ were recorded as 0. For the calculation of pharmacokinetic parameters, the concentration before dosing was counted as 0; BLQ before Cmax (including “No peak”) was counted as 0; BLQ after Cmax (including “No peak”) was not included in the calculation. Pharmacokinetic parameters such as AUC(0-t), T1/2, Cmax, Tmax and MRT were calculated according to the blood concentration data of BFA at different time points using WinNonlin.

[11] = aqueous with cosolvent or surfactant or cyclodextrin, 5% DMSO + 95% H2O, n = 3, read-out: Solubility, 5% DMSO + 95% H2O
[12] = organic solvent or mixture, acetone, n = 3, read-out: Solubility, Acetone
[13] = organic solvent or mixture, methanol, n = 3, read-out: Solubility, Methanol

Structure (SMILES) | IC50 [1] | IC50 [2] | solubility at 24 h [3, 11] | solubility at 24 h [3, 12] | solubility at 24 h [3, 13] | IC50 [4] | IC50 [5] | IC50 [6] | IC50 [7] | IC50 [8] | IC50 [9] | Blood concentrations detected within 1 h [10] | Drug in blood after 1 h [10]
C[C@H]1CCC/C=C/[C@@H]2C[C@H](OC(=O)OCc3cccc(F)c3)C[C@H]2[C@H](O)/C=C/C(=O)O1 [Compound B, reference compound] | 0.1 to 1 µM | 0.1 to 1 µM | 260 ± 160 µg/mL | 9550 ± 1230 µg/mL (≈ 22.1 mM) | 9760 ± 1210 µg/mL (≈ 22.6 mM) | 1 to 10 µM | 0.1 to 1 µM | 1 to 10 µM | 0.1 to 1 µM | 1 to 10 µM | 1 to 10 µM | – | –
C[C@H]1CCC/C=C/[C@@H]2C[C@H](OC(=O)OCc3cccnc3)C[C@H]2[C@H](OC(=O)OCc2cccnc2)/C=C/C(=O)O1 [Compound D, reference compound] | 1 to 10 µM | 1 to 10 µM | 510 ± 130 µg/mL | 21200 ± 1120 µg/mL (≈ 38.4 mM) | 20400 ± 1410 µg/mL (≈ 37.1 mM) | 1 to 10 µM | 0.1 to 1 µM | 0.1 to 1 µM | 1 to 10 µM | 0.1 to 1 µM | 1 to 10 µM | low blood concentrations | basically undetectable
COC(=O)O[C@@H]1C[C@H]2[C@H](O)/C=C/C(=O)O[C@@H](C)CCC/C=C/[C@@H]2C1 [Compound C, reference compound] | 0.1 to 1 µM | 1 to 10 µM | 250 ± 230 µg/mL | 9260 ± 1130 µg/mL (≈ 27.4 mM) | 9440 ± 1510 µg/mL (≈ 27.9 mM) | 1 to 10 µM | 0.1 to 1 µM | 0.1 to 1 µM | 0.1 to 1 µM | 0.1 to 1 µM | 1 to 10 µM | – | –
C[C@H]1CCC/C=C/[C@@H]2C[C@H](OC(=O)OCc3cncc(F)c3)C[C@H]2[C@H](O)/C=C/C(=O)O1 [Compound 4, BFA-7-(5-fluoro-pyridine-3-ylmethyl)carbonate] | < 0.1 µM | 0.1 to 1 µM | 2720 ± 330 µg/mL | 63800 ± 3530 µg/mL (≈ 147 mM) | 69400 ± 3510 µg/mL (≈ 160 mM) | < 0.1 µM | 0.1 to 1 µM | 0.1 to 1 µM | 0.1 to 1 µM | 0.1 to 1 µM | 0.1 to 1 µM | – | –
Cc1ccc(COC(=O)O[C@@H]2C[C@H]3[C@H](O)/C=C/C(=O)O[C@@H](C)CCC/C=C/[C@@H]3C2)cn1 [Compound 7] | 0.1 to 1 µM | 0.1 to 1 µM | – | – | – | 0.1 to 1 µM | 0.1 to 1 µM | 0.1 to 1 µM | 0.1 to 1 µM | 0.1 to 1 µM | 0.1 to 1 µM | – | –
C[C@H]1CCC/C=C/[C@@H]2C[C@H](OC(=O)OCc3ccncc3)C[C@H]2[C@H](O)/C=C/C(=O)O1 [Compound 3, BFA-7-(pyridine-4-ylmethyl)carbonate] | 0.1 to 1 µM | 0.1 to 1 µM | 2650 ± 1600 µg/mL | 69600 ± 1740 µg/mL (≈ 168 mM) | 70300 ± 4350 µg/mL (≈ 169 mM) | 0.1 to 1 µM | < 0.1 µM | 0.1 to 1 µM | 0.1 to 1 µM | 0.1 to 1 µM | < 0.1 µM | – | –
C[C@H]1CCC/C=C/[C@@H]2C[C@H](OC(=O)OCc3cncc4ccccc34)C[C@H]2[C@H](O)/C=C/C(=O)O1 [Compound 12] | 0.1 to 1 µM | 0.1 to 1 µM | – | – | – | 0.1 to 1 µM | 0.1 to 1 µM | 0.1 to 1 µM | < 0.1 µM | 0.1 to 1 µM | 0.1 to 1 µM | – | –
C[C@H]1CCC/C=C/[C@@H]2C[C@H](OC(=O)OCc3ccccn3)C[C@H]2[C@H](O)/C=C/C(=O)O1 [Compound 2, BFA-7-(pyridine-2-ylmethyl)carbonate] | 0.1 to 1 µM | 0.1 to 1 µM | 2480 ± 1550 µg/mL | 69400 ± 2230 µg/mL (≈ 167 mM) | 73300 ± 3520 µg/mL (≈ 176 mM) | < 0.1 µM | 0.1 to 1 µM | 0.1 to 1 µM | 0.1 to 1 µM | 0.1 to 1 µM | 0.1 to 1 µM | – | –
C[C@H]1CCC/C=C/[C@@H]2C[C@H](OC(=O)OCCc3cccnc3)C[C@H]2[C@H](O)/C=C/C(=O)O1 [Compound 9, BFA-7-(pyridine-3-ylethyl)carbonate] | 0.1 to 1 µM | 0.1 to 1 µM | 2700 ± 770 µg/mL | 68800 ± 2530 µg/mL (≈ 160 mM) | 69000 ± 1810 µg/mL (≈ 161 mM) | < 0.1 µM | 0.1 to 1 µM | < 0.1 µM | 0.1 to 1 µM | 0.1 to 1 µM | 0.1 to 1 µM | – | –
C[C@H]1CCC/C=C/[C@@H]2C[C@H](OC(=O)OCc3ccc(N)nc3)C[C@H]2[C@H](O)/C=C/C(=O)O1 [Compound 5] | 0.1 to 1 µM | < 0.1 µM | – | – | – | 0.1 to 1 µM | 0.1 to 1 µM | 0.1 to 1 µM | 0.1 to 1 µM | 0.1 to 1 µM | < 0.1 µM | – | –
C[C@H]1CCC/C=C/[C@@H]2C[C@H](OC(=O)OCc3ccc(N4CCCCC4)nc3)C[C@H]2[C@H](O)/C=C/C(=O)O1 [Compound 8] | 0.1 to 1 µM | 0.1 to 1 µM | – | – | – | 1 to 10 µM | 0.1 to 1 µM | 0.1 to 1 µM | 0.1 to 1 µM | 0.1 to 1 µM | 1 to 10 µM | – | –
C[C@H]1CCC/C=C/[C@@H]2C[C@H](OC(=O)OCCCc3cccnc3)C[C@H]2[C@H](O)/C=C/C(=O)O1 [Compound 10] | 0.1 to 1 µM | < 0.1 µM | – | – | – | 0.1 to 1 µM | 0.1 to 1 µM | 0.1 to 1 µM | 0.1 to 1 µM | 0.1 to 1 µM | 0.1 to 1 µM | – | –
C[C@H]1CCC/C=C/[C@@H]2C[C@H](OC(=O)OCCc3ccccc3)C[C@H]2[C@H](O)/C=C/C(=O)O1 [Compound A, reference compound] | 1 to 10 µM | 0.1 to 1 µM | 250 ± 130 µg/mL | 9360 ± 1260 µg/mL (≈ 21.8 mM) | 9930 ± 1210 µg/mL (≈ 23.2 mM) | 1 to 10 µM | 1 to 10 µM | 0.1 to 1 µM | 0.1 to 1 µM | 0.1 to 1 µM | 1 to 10 µM | – | –
COc1cccc2c1C(=O)c1c(O)c3c(c(O)c1C2=O)C[C@@](O)(C(=O)CO)C[C@@H]3O[C@H]1C[C@H](N)[C@H](O)[C@H](C)O1 [Adriamycin, reference compound] | < 0.1 µM | 0.1 to 1 µM | – | – | – | 0.1 to 1 µM | 1 to 10 µM | 0.1 to 1 µM | > 10 µM | 1 to 10 µM | 0.1 to 1 µM | – | –

Source: patent publication US12522590B2, “Brefeldin a derivatives, preparation method and use thereof” (OCEAN UNIVERSITY OF CHINA, priority 2019, dated 2026)
